In ChEMBL document CHEMBL6071176, “Development of Phloroglucinol-Linked Tris-Quaternary Ammonium Salt Antimicrobial Peptide Mimics with Low Cytotoxicity and Broad-Spectrum Antibacterial Activity” (J Med Chem, 2024):
Calls of active or inactive are those of the source. No cut-off for these calls is given here.

Key:
Enterococcus faecalis = experiment: Antimicrobial activity against Enterococcus faecalis assessed as inhibition of growth incubated for 18 hrs by CLSI guidelines based assay; type: functional
Escherichia coli [1] = experiment: Antimicrobial activity against Escherichia coli assessed as inhibition of growth incubated for 18 hrs by CLSI guidelines based assay; type: functional
[2] = tested on: Stenotrophomonas maltophilia; experiment: Antimicrobial activity against Stenotrophomonas maltophilia assessed as inhibition of growth incubated for 18 hrs by CLSI guidelines based assay; type: functional
[3] = Selectivity index, ratio of HC50 for sheep red blood cells to MIC for Staphylococcus aureus; type: toxicity, cell-based, RBC; details: read-out: Selectivity Index
Staphylococcus aureus [4] = experiment: Antibacterial activity against NDM-1 gene-resistant Staphylococcus aureus assessed as inhibition of bacterial growth incubated for 18 hrs by CLSI guidelines based assay; type: functional
Staphylococcus aureus [5] = experiment: Antibacterial activity against methicillin-resistant Staphylococcus aureus assessed as inhibition of bacterial growth measured after 6 hrs in presence of plasma; type: functional, organism-based
Staphylococcus aureus [6] = experiment: Bactericidal activity against Staphylococcus aureus assessed as bacterial killing in presence of Mueller-Hinton broth; type: functional, organism-based
Staphylococcus aureus [7] = experiment: Bactericidal activity against Staphylococcus aureus assessed as bacterial killing in presence of 50% plasma; type: functional, organism-based
Staphylococcus aureus [8] = experiment: Bactericidal activity against Staphylococcus aureus assessed as bacterial killing in presence of 50% serum; type: functional, organism-based
Staphylococcus aureus [9] = experiment: Bactericidal activity against early exponential phase Staphylococcus aureus assessed as bacterial killing at 3 ug/ml incubated for 12 hrs by time-kill assay; type: functional, organism-based; details: dose 3.0 µg/ml
Escherichia coli [10] = experiment: Bactericidal activity against early exponential phase Escherichia coli assessed as bacterial killing at 3 ug/ml incubated for 12 hrs by time-kill assay; type: functional, organism-based; details: dose 3.0 µg/ml
Escherichia coli [11] = experiment: Resistance development in Escherichia coli assessed as increase in MIC measured within 20 passages of continues culture; type: functional
Staphylococcus aureus [12] = experiment: Anti-biofilim activity against Staphylococcus aureus biofilm assessed bio-film thickness at 32 ug/ml measured after 24 hrs incubation by SYTO 9 staining based […] laser scanning microscopy (CLSM) (reference value: 29.5 microm); type: functional; details: dose 32 µg/ml
Cell membrane [13] = experiment: Induction of Cytoplasmic membrane depolarization in Staphylococcus aureus assessed as increase in fluorescence intensity measured at 6 times of MIC measured after 4 hrs by DiSC3(5) dye-based fluorescence assay; type: subcellular
Staphylococcus aureus [14] = experiment: Anti-microbial activity against Staphylococcus aureus assessed as bacterial growth inhibition in presence of PE (exogenous bacterial cell membrane component) measured after 18 hrs; type: functional, organism-based
Cell membrane [15] = experiment: Induction of membrane damage in Staphylococcus aureus assessed as nucleic acid leakage measured at 0.5 to 2 times of MIC by microplate spectrophotometry; type: subcellular; details: TDE = time-dependent effect
Staphylococcus aureus [16] = experiment: Induction of ROS level in Staphylococcus aureus assessed as increase in intracellular ROS level by measuring fold increase in fluorescent intensity at 0.5 ug/ml measured after 4.5 hrs by ROS-sensitive fluorescent probe DCF-DA staining based assay; type: functional; details: dose 0.5 µg/ml
Staphylococcus aureus [17] = experiment: Induction of morphological changes in Staphylococcus aureus assessed as wrinkled/cracked surface at 4 ug/ml incubated for 4 hrs by Scanning electron microscopy (SEM); type: functional, organism-based; details: dose 4.0 µg/ml
Staphylococcus aureus [18] = experiment: Up-regulation of riboflavin metabolic pathway genes in Staphylococcus aureus at 0.25 ug/ml and incubated for 4 hrs by Transcriptome analysis; type: functional, organism-based; details: dose 0.25 µg/ml
Staphylococcus aureus [19] = experiment: Down-regulation of aspartate/ornithine carbamoyltransferase in Staphylococcus aureus at 0.25 ug/ml and incubated for 4 hrs by Transcriptome analysis; type: functional, organism-based; details: dose 0.25 µg/ml
[20] = Toxicity in female SPF Kunming mouse assessed as pathological changes in heart at 200 mg/kg/day, sc measured after 24 hrs by hematoxylin and eosin staining based assay; type: organism-based; details: in vivo
Staphylococcus aureus [21] = experiment: In vivo antibacterial activity against methicillin-resistant Staphylococcus aureus subcutaneously infected in SPF female Kunming mouse model assessed as bacteria count in dissected mouse at 10 mg/kg/day injected into blister after 6 hrs of infection measured after 6 consecutive treatments; type: functional, organism-based

CCCCCCCC[N+](C)(C)CCCCOc1cc(OCCCC[N+](C)(C)CCCCCCCC)cc(OCCCC[N+](C)(C)CCCCCCCC)c1.[Br-].[Br-].[Br-]
MIC (Enterococcus faecalis): 1 µg/mL
MIC (Escherichia coli [1]): 2 µg/mL
MIC [2]: 2 µg/mL
selectivity ratio [3]: > 2560
MIC90 (Staphylococcus aureus [4]): 2 µg/mL
Activity (Staphylococcus aureus [5]): Active
Activity (Staphylococcus aureus [6]): Active
Activity (Staphylococcus aureus [7]): Active
Activity (Staphylococcus aureus [8]): Active
Activity (Staphylococcus aureus [9]): Active
Activity (Escherichia coli [10]): Active
MIC (Escherichia coli [11]): 1 µg/mL
Activity (Staphylococcus aureus [12]): 14.7 um
Activity (Cell membrane [13]): Active
Activity (Staphylococcus aureus [14]): Active
Activity (Cell membrane [15]): Tde
fold change (FC) (Staphylococcus aureus [16]): 3
Activity (Staphylococcus aureus [17]): Active
Activity (Staphylococcus aureus [18]): Active
Activity (Staphylococcus aureus [19]): Active
Activity [20]: Non-Toxic
Activity (Staphylococcus aureus [21]): Active
